Where a name gives a salt, the structure may show the parent alone. Read-outs that look alike come from different tables or passages of the source.
Key:
Format in all cases: biochemical
recombinant PRL-2 = biological target: T1, recombinant PRL-2 (Homo sapiens, UniProt Q12974); assay: In vitro phosphatase assay (DiFMUP hydrolysis), PRL-2;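 note: PRL-2 activity read as DiFMUP hydrolysis after 20 min at room temperature with drug, enzyme first pre-reduced at 4 °C for 20 min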
T1 construct: 6xHis (N, cleaved yes); made in house; host or cells: E. coli One Shot BL21 Star
T1 sequence (Q12974 1-167): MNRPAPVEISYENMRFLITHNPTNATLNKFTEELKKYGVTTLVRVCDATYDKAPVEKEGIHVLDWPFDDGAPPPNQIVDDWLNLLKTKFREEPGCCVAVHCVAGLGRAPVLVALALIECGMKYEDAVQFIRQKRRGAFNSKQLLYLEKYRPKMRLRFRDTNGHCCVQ

recombinant PRL-3 = biological target: T2, recombinant PRL-3 (Homo sapiens, UniProt O75365); assay: In vitro phosphatase assay (DiFMUP hydrolysis), PRL-3; note: test concentration or dose not given here
T2 construct: 6xHis (N, cleaved yes); made in house; host or cells: E. coli One Shot BL21 Star
T2 sequence (O75365 whole entry): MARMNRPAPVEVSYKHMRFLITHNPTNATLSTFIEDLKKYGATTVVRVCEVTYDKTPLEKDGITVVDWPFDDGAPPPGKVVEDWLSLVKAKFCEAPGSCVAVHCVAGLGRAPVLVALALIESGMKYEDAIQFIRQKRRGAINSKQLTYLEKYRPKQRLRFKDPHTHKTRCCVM

recombinant PRL-1 = biological target: T3, recombinant PRL-1 (Homo sapiens, UniProt Q93096); assay: In vitro phosphatase assay (DiFMUP hydrolysis), PRL-1; note: test concentration or dose not given here
T3 construct: 6xHis (N, cleaved yes); made in house; host or cells: E. coli One Shot BL21 Star
T3 sequence (Q93096 1-173): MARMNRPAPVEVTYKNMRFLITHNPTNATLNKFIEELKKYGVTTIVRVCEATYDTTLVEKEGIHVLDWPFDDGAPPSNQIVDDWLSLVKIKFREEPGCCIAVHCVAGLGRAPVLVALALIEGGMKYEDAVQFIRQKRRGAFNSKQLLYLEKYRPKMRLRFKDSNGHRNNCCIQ

[1] = FDA-approved drug screen, compared to DMSO

Row | Compound | % Phosphatase Activity (compared to DMSO) PRL-2 (recombinant PRL-2; [1]) [%] | % Phosphatase Activity (compared to DMSO) PRL-3 (recombinant PRL-3; [1]) [%] | % Phosphatase Activity (compared to DMSO) PRL-1 (recombinant PRL-1; [1]) [%] | % Phosphatase Activity (compared to DMSO) PRL-2 (recombinant PRL-2) [%] | % Phosphatase Activity (compared to DMSO) PRL-3 (recombinant PRL-3) [%] | % Phosphatase Activity (compared to DMSO) PRL-1 (recombinant PRL-1) [%]
1 | Cc1onc(-c2c(Cl)cccc2Cl)c1C(=O)N[C@@H]1C(=O)N2[C@@H]1SC(C)(C)[C@@H]2C(=O)O [Dicloxacillin Sodium] | 121 | 85 | 106 | – | – | –
2 | O=c1[nH]cnc2c1ncn2[C@H]1CC[C@@H](CO)O1 [Didanosine] | 114 | 85 | 95 | – | – | –
3 | C[C@]12CCC3=C4CCC(=O)C=C4CC[C@H]3[C@@H]1CC[C@@]2(O)CC#N [Dienogest] | 78 | 72 | 100 | – | – | –
4 | CCN(CC)C(=O)N1CCN(C)CC1.O=C(O)CC(O)(CC(=O)O)C(=O)O [Diethylcarbamazine (citrate)] | 101 | 90 | 92 | – | – | –
5 | CC/C(=C(/CC)c1ccc(O)cc1)c1ccc(O)cc1 [Diethylstilbestrol] | 97 | 92 | 86 | – | – | –
6 | CN1CCN(c2cc3c(cc2F)c(=O)c(C(=O)O)cn3-c2ccc(F)cc2)CC1 [Difloxacin HCl] | 102 | 114 | 99 | – | – | –
7 | O=C(O)c1cc(-c2ccc(F)cc2F)ccc1O [Diflunisal] | 87 | 85 | 91 | – | – | –
8 | CCCC(=O)O[C@]1(C(=O)COC(C)=O)CC[C@H]2[C@@H]3C[C@H](F)C4=CC(=O)C=C[C@]4(C)[C@@]3(F)[C@@H](O)C[C@@]21C [Difluprednate] | 76 | 67 | 82 | – | – | –
9 | C[C@H]1O[C@@H](O[C@H]2[C@@H](O)C[C@H](O[C@H]3[C@@H](O)C[C@H](O[C@H]4CC[C@@]5(C)[C@H](CC[C@@H]6[C@@H]5C[C@@H](O)[C@]5(C)[C@@H](C7=CC(=O)OC7)CC[C@]65O)C4)O[C@@H]3C)O[C@@H]2C)C[C@H](O)[C@@H]1O [Digoxin] | 95 | 76 | 102 | – | – | –
10 | CN[C@@H]1[C@H](O[C@H]2[C@H](O[C@H]3[C@H](O)[C@@H](O)[C@H](NC(=N)N)[C@@H](O)[C@@H]3NC(=N)N)O[C@@H](C)[C@]2(O)CO)O[C@@H](CO)[C@H](O)[C@H]1O [Dihydrostreptomycin sulfate] | 90 | 110 | 89 | – | – | –
11 | Oc1c(I)cc(I)c2cccnc12 [Diiodohydroxyquinoline] | 108 | 81 | 89 | – | – | –
12 | COc1ccc([C@@H]2Sc3ccccc3N(CCN(C)C)C(=O)[C@@H]2OC(C)=O)cc1 [Diltiazem HCl] | 111 | 124 | 94 | – | – | –
13 | O=S(=O)([O-])CCSSCCS(=O)(=O)[O-].[Na+].[Na+] [Dimesna] | 99 | 79 | 99 | – | – | –
14 | COC(=O)/C=C/C(=O)OC [Dimethyl Fumarate] | 115 | 83 | 106 | – | – | –
15 | CCc1cnn2c(NCc3ccc[n+]([O-])c3)cc(N3CCCC[C@H]3CCO)nc12 [Dinaciclib (SCH727965)] | – | – | – | 89 | 87 | 87
16 | Cc1c(C(N)=O)cc([N+](=O)[O-])cc1[N+](=O)[O-] [Dinitolmide] | 117 | 90 | 107 | – | – | –
17 | O=C(Nc1ccccc1)OCC(CN1CCCCC1)OC(=O)Nc1ccccc1 (stereo not drawn) [Diperodon HCl] | 98 | 103 | 99 | – | – | –

Reference: PMC8119466, “A screen of FDA-approved drugs identifies inhibitors of protein tyrosine phosphatase 4A3 (PTP4A3 or PRL-3)” (Scientific Reports, 2021)
